Source: patent publication US10808017B2, “Ubiquitin variants and uses therof as 53BP1 inhibitors” (The Governing Council of the University of Toronto, priority 2016, dated 2020)

Key:
[1] = tested on: gene conversion (HR) in U2OS DR-GFP cells; assay: Direct-repeat (DR)-GFP gene conversion assay; assay type: cell-based, human; details: SCR7 at 1 μM; i53 by plasmid expression
Method: (§1) FIG. 4. Activation of HR by i53. FIG. 4A, Schematic of the DR-GFP assay. FIG. 4B. U2OS DR-GFP cells were transfected with the vectors expressing i53, the DM mutant or an empty vector control (EV) along with an I-Scel expression vector. The percentage of GFP-positive cells was determined 48 h post-transfection for each condition and was normalized to the empty vector condition (mean±s.d., N=4). FIG. 4C, U2OS DR-GFP were first transfected with siRNAs targeting the 53BP1 or BRCA1 mRNAs along with a non-targeting siRNA (CTRL). 24 h post-transfection, cells were transfected with the I-SceI expression vector and the percentage of GFP-positive cells was determined 48 h post-siRNA transfection for each condition. The values were normalized to the empty vector condition and presented as the mean±s.e.m; N=4. FIG. 4D, Schematic of the gene targeting assay. FIG. 4E, Gene targeting efficiency at the LMNA locus in parental or 53BP1Δ U2OS cells following transfection with vectors expressing Flag-tagged i53 or its DM mutant or an empty vector control (EV). The DNA-PK inhibitor NU7441 was also added where indicated. 24 h post-transfection, cells were analysed for mClover fluorescence. Individual experiments are presented with the error bar representing the s.d., (N=3). FIG. 4F, Gene targeting at the LMNA locus in G 1-arrested parental (WT) or 53BP1Δ U2OS cells transfected with vectors expressing Flag-tagged i53 or its DM mutant or an empty vector control (EV). The DNA-PK inhibitor NU7441 was also added in the indicated conditions. 24 h post-transfection, cells were analysed for mClover fluorescence. Individual experiments are present with the error bar representing the s.d., (N=3).
The direct repeat (DR)-GFP assay to measure the frequency of HR and the strand annealing EJ2-GFP assay to measure the frequency of MMEJ were performed as previously described. Briefly, U2OS DR-GFP or U2OS EJ2-GFP cells were transfected with 10 nM siRNA (Dharmacon) using Lipofectamine RNAiMAX (Invitrogen). 24 h later, the cells were transfected with the pCBASceI plasmid (Addgene #26477) and plasmids, using Lipofectamine 2000 (Invitrogen). 48 h post-plasmid transfection, the cells were trypsinized and the percentage of GFP-expressing cells was analyzed using the BD FACSCalibur flow cytometer.
AAV-293 cells (Agilent) were transfected with pAAV expression, pDJ and pHelper constructs (Cell Biolabs, Inc., USA) in equal amounts using PEI to produce AAV-DJ expression viruses. 48-72 h later, the viral supernatant was used to transduce target cells for 24 h, and assays were initiated a further 24 h later.

[2] = tested on: gene targeting at the LMNA locus in U2OS cells; details: reference [21]; cited from earlier work
[3] = tested on: gene targeting at the LMNA locus in U2OS cells; assay: LMNA mClover gene targeting assay (CRISPR/Cas9); assay type: cell-based; details: parental U2OS cells; NU7441 at 10 μM
Method: as §1
The Lamin A (LMNA) assay to measure the frequency of introduction of the coding sequence for mClover at the 5′ end of LMNA using the CRISPR/Cas9 was performed as previously described4. Parental or 53BP1Δ U2OS cell lines were transfected with the indicated plasmids using Lipofectamine RNAiMAX (Invitrogen). 24 h later, the cells were electroporated with 2.5 μg of sgRNA plasmids and 2.5 μg of donor template using a Nucleofector (Lonza; protocol X-001). Parental or 53BP1Δ U2OS cells stably expressing CtIP-T847E mutant were transfected with an siRNA against KEAP1 and the indicated plasmids and processed as previously described.

Compound | Gene conversion in DR-GFP assay (comparison in words) [1] | Response of gene targeting at the LMNA locus to treatment [2] | Change of gene targeting at the LMNA locus (in words) [3]
O=c1[nH]c(=S)[nH]c(N=Cc2ccccc2)c1N=Cc1ccccc1 [SCR7, reference compound] | minimal impact | not responsive | –
O=c1cc(N2CCOCC2)oc2c(-c3cccc4c3sc3ccccc34)cccc12 [NU7441, 8-dibenzothiophen-4-yl-2-morpholin-4-yl-chromen-4-one, reference compound] | – | – | modest increase in gene targeting
c1cnccn1 [SCR7 pyrazine, reference compound] | minimal impact | – | –
